± gives the standard deviation of the averaged measurements.
Tests used:
Test in all cases: level (log10 ratio to DMSO vehicle control); higher = higher biomarker level / cell amount than vehicle control
[1] = compound: C=CC(F)(F)C(F)(F)C(F)(F)C(F)(F)C(F)(F)C(F)(F)C(F)(F)C(F)(F)C=C [1,8-Divinylperfluorooctane]; conditions: in DMSO
Description: (§1)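 BioMAP Diversity Plus panel of 12 human primary cell co-culture systems (3C, 4H, LPS, SAg, BT, BF4T, BE3C, CASM3C, HDF3CGF, KF3CT, MyoF, Mphg). Compounds were added 1 h before stimulation and left for 24 h (MyoF 48 h; BT 72 h for soluble read-outs or 6 d for IgG). Biomarkers were read by ELISA, cytotoxicity by SRB, PBMC viability and proliferation by Alamar Blue. Each well value was divided by the mean of 8 DMSO control wells on the same plate and log10 transformed; duplicate blinded samples were tested at 4 concentrations.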

[2] = compound: O=C(O)C(F)(F)C(F)(F)C(F)(F)OC(F)(C(F)(F)F)C(F)(F)F [Perfluoro-4-isopropoxybutanoic acid]; conditions: in DMSO
Description: as §1

[3] = compound: OCCCC(F)(F)C(F)(F)C(F)(F)C(F)(F)C(F)(F)C(F)(F)C(F)(F)F [7:3 Fluorotelomer alcohol]; conditions: 6700 nM; in DMSO
Description: as §1

[4] = compound: FC(F)C(F)(F)COCC1CO1 [((2,2,3,3-Tetrafluoropropoxy)methyl)oxirane]; conditions: in DMSO
Description: as §1

[5] = compound: C=C(C)C(=O)OCCC(F)(F)C(F)(F)C(F)(F)C(F)(F)C(F)(C(F)(F)F)C(F)(F)F [(Perfluoro-5-methylhexyl)ethyl 2-methylprop-2-enoate]; conditions: in DMSO
Description: as §1

[6] = compound: NCC(F)(F)C(F)(F)C(F)(F)C(F)(F)C(F)(F)C(F)(F)C(F)(F)F [1H,1H-Perfluorooctylamine]; conditions: in DMSO
Description: as §1

[7] = compound: FC(F)(F)C(F)(F)C(F)(F)C(F)(F)C(F)(F)C(F)(F)C(F)(F)C(F)(F)CCS [2-(Perfluorooctyl)ethanthiol]; conditions: in DMSO
Description: as §1

[8] = compound: O=C(O)C(F)(F)C(F)(F)C(F)(F)C(F)(F)C(F)(F)C(F)(F)C(F)(F)C(F)F [9-H-Perfluorononanoic acid]; conditions: in DMSO
Description: as §1

| Test System | level (log10) ([1]; 6700 nM) | level (log10) ([1]; 20000 nM) | level (log10) ([2]; 6700 nM) | level (log10) ([2]; 20000 nM) | level (log10) ([2]; 60000 nM) | level (log10) [3] | level (log10) ([4]; 6700 nM) | level (log10) ([4]; 20000 nM) | level (log10) ([4]; 60000 nM) | level (log10) ([5]; 6700 nM) | level (log10) ([5]; 20000 nM) | level (log10) ([6]; 6700 nM) | level (log10) ([6]; 20000 nM) | level (log10) ([6]; 60000 nM) | level (log10) ([7]; 6700 nM) | level (log10) ([7]; 20000 nM) | level (log10) ([8]; 6700 nM) | level (log10) ([8]; 20000 nM) | level (log10) ([8]; 60000 nM) |
| --- | --- | --- | --- | --- | --- | --- | --- | --- | --- | --- | --- | --- | --- | --- | --- | --- | --- | --- | --- |
| 3C:CCL2/MCP-1 | -0.0055 ± 0.0021 | 0.031 ± 0.025 | -0.005 ± 0.016 | 0.001 ± 0.0071 | 0.0375 ± 0.018 | 0.0045 ± 0.011 | 0.0045 ± 0.025 | 0.016 ± 0.028 | 0.0215 ± 0.042 | -0.0145 ± 0.025 | 0.006 ± 0.044 | -0.003 ± 0.0099 | 0.0095 ± 0.021 | 0.0275 ± 0.028 | 0.0045 ± 0.035 | 0.0135 ± 0.0078 | -0.001 ± 0.021 | 0.0125 ± 0.0092 | 0.0415 ± 0.005 |
| 3C:CD54/ICAM-1 | -0.0005 ± 0.0064 | 0.0095 ± 0.0021 | 0.0075 ± 0.016 | -0.0085 ± 0.022 | 0.0285 ± 0.0078 | 0.013 | -0.008 ± 0.034 | -0.017 ± 0.025 | -0.002 ± 0.0099 | -0.009 ± 0.0014 | -0.01 ± 0.0071 | -0.0105 ± 0.028 | -0.0125 ± 0.039 | -0.015 ± 0.025 | -0.0055 ± 0.012 | 0.0005 ± 0.016 | -0.006 | -0.0055 ± 0.0092 | 0.008 ± 0.013 |
| 3C:CD62E/E-Selectin | -0.0305 ± 0.025 | -0.014 ± 0.024 | -0.007 ± 0.023 | -0.015 ± 0.03 | 0.023 ± 0.0099 | 0.002 ± 0.014 | 0.0085 ± 0.0021 | 0.0105 ± 0.03 | 0.003 ± 0.047 | -0.0095 ± 0.018 | -0.0175 ± 0.0021 | -0.0045 ± 0.047 | 0.022 ± 0.02 | 0.0335 ± 0.011 | -0.0065 ± 0.03 | -0.0235 ± 0.036 | -0.009 ± 0.014 | -0.0145 ± 0.0092 | 0.006 ± 0.025 |
| 3C:CD106/VCAM-1 | -0.018 ± 0.017 | -0.003 ± 0.011 | 0.0135 ± 0.00071 | 0.006 ± 0.011 | 0.015 ± 0.02 | 0.005 ± 0.0057 | -0.0005 ± 0.0092 | -0.0225 ± 0.023 | -0.0125 ± 0.011 | -0.032 ± 0.0099 | -0.012 ± 0.0085 | -0.0035 ± 0.00071 | -0.016 ± 0.0057 | -0.005 ± 0.0099 | -0.016 ± 0.027 | -0.0105 ± 0.036 | -0.025 ± 0.016 | -0.018 ± 0.035 | -0.0185 ± 0.04 |
| 3C:CD141/Thrombomodulin | -0.0215 ± 0.022 | -0.0055 ± 0.023 | -0.019 ± 0.0014 | -0.0365 ± 0.019 | -0.015 ± 0.0028 | -0.032 | -0.007 ± 0.0085 | -0.0185 ± 0.049 | -0.0145 ± 0.039 | 0.041 ± 0.033 | 0.005 ± 0.033 | -0.036 ± 0.033 | -0.0295 ± 0.033 | -0.0385 ± 0.039 | 0.0105 ± 0.0078 | -0.042 ± 0.05 | 0.012 ± 0.0085 | -0.003 ± 0.0085 | -0.0365 ± 0.0078 |
| 3C:CD142/Tissue Factor | -0.068 ± 0.041 | -0.0205 ± 0.061 | -0.015 ± 0.0085 | -0.0185 ± 0.0035 | -0.002 ± 0.0057 | -0.007 ± 0.0057 | -0.0175 ± 0.07 | -0.032 ± 0.05 | -0.036 ± 0.071 | 0.0205 ± 0.015 | -0.0295 ± 0.046 | -0.0275 ± 0.00071 | -0.0105 ± 0.00071 | -0.0255 ± 0.011 | -0.0345 ± 0.022 | -0.0335 ± 0.015 | 0.035 ± 0.0028 | 0.027 ± 0.0042 | 0.059 ± 0.023 |
| BE3C:Keratin 8/18 | 0.0015 ± 0.005 | -0.0165 ± 0.005 | -0.0135 ± 0.0021 | -0.024 ± 0.0028 | 0.009 ± 0.013 | 0.0155 ± 0.032 | -0.004 ± 0.0071 | -0.019 ± 0.031 | -0.0045 ± 0.0021 | -0.0185 ± 0.0092 | 0.0005 ± 0.0064 | -0.009 ± 0.0071 | -0.024 ± 0.0099 | -0.0005 ± 0.0078 | -0.0025 ± 0.0021 | -0.009 ± 0.0014 | -0.006 ± 0.0085 | 0.005 ± 0.0042 | -0.012 ± 0.018 |
| BE3C:MMP-1 | 0.0095 ± 0.069 | 0.0345 ± 0.0092 | -0.002 ± 0.017 | 0.004 ± 0.025 | 0.0605 ± 0.054 | 0.016 ± 0.033 | -0.013 ± 0.02 | -0.0335 ± 0.019 | -0.0185 ± 0.0078 | 0.026 ± 0.0042 | 0.014 ± 0.0057 | -0.0305 ± 0.042 | -0.0235 ± 0.026 | -0.001 ± 0.04 | -0.0055 ± 0.022 | -0.032 ± 0.031 | 0.043 ± 0.045 | 0.061 ± 0.0028 | 0.204 ± 0.047 |
| BE3C:MMP-9 | -0.0165 ± 0.011 | -0.0165 ± 0.012 | 0.0235 ± 0.033 | 0.0185 ± 0.044 | 0.0645 ± 0.067 | 0.0055 ± 0.026 | -0.0135 ± 0.015 | -0.03 ± 0.028 | -0.005 ± 0.0028 | 0.0245 ± 0.039 | 0.022 ± 0.044 | 0.001 ± 0.023 | -0.0105 ± 0.032 | 0.005 ± 0.048 | -0.0195 ± 0.011 | -0.069 ± 0.018 | 0.015 ± 0.02 | 0.0415 ± 0.00071 | 0.0255 ± 0.0021 |
| BE3C:PAI-I | 0.016 ± 0.017 | 0.016 ± 0.016 | -0.0155 ± 0.028 | 0.002 ± 0.017 | 0.0115 ± 0.032 | -0.0545 ± 0.049 | -0.0145 ± 0.028 | -0.015 ± 0.034 | -0.011 ± 0.018 | 0.007 ± 0.03 | 0.0205 ± 0.019 | -0.0075 ± 0.028 | -0.008 ± 0.014 | -0.002 ± 0.04 | -0.015 ± 0.044 | -0.05 ± 0.011 | 0.0195 ± 0.04 | 0.0405 ± 0.023 | -0.0295 ± 0.0021 |
| BE3C:SRB | -0.0005 ± 0.00071 | 0 ± 0.0014 | -0.0035 ± 0.00071 | -0.0095 ± 0.00071 | 0.001 ± 0.0085 | -0.0065 ± 0.0092 | -0.0015 ± 0.005 | -0.001 ± 0.0014 | 0.0085 ± 0.023 | 0.009 ± 0.0099 | 0.0065 ± 0.016 | 0 | 0.0035 ± 0.00071 | 0.013 ± 0.024 | 0.0055 ± 0.0092 | 0.0095 ± 0.005 | -0.0075 ± 0.0035 | -0.007 ± 0.0057 | -0.0105 ± 0.0035 |
| BE3C:tPA | -0.0145 ± 0.0021 | -0.0015 ± 0.015 | -0.0285 ± 0.018 | -0.0385 ± 0.0035 | -0.0025 ± 0.057 | -0.014 ± 0.025 | -0.006 ± 0.031 | -0.015 ± 0.024 | -0.0165 ± 0.00071 | -0.0245 ± 0.00071 | -0.0325 ± 0.021 | -0.035 ± 0.016 | -0.001 ± 0.034 | -0.0145 ± 0.028 | 0.0105 ± 0.0064 | 0.0165 ± 0.016 | 0.075 ± 0.023 | 0.0285 ± 0.019 | 0.002 ± 0.025 |
| BE3C:uPA | -0.0245 ± 0.0064 | -0.0315 ± 0.0078 | -0.001 ± 0.0042 | 0.0025 ± 0.012 | 0.0185 ± 0.0064 | 0.0005 ± 0.016 | -0.0105 ± 0.025 | -0.021 ± 0.035 | -0.004 ± 0.025 | -0.001 ± 0.016 | -0.0005 ± 0.016 | -0.011 ± 0.011 | -0.0135 ± 0.0021 | -0.002 ± 0.014 | 0.0045 ± 0.00071 | -0.0085 ± 0.016 | 0.0085 ± 0.0021 | 0.003 ± 0.014 | -0.002 ± 0.0028 |
| CASM3C:CCL2/MCP-1 | -0.0225 ± 0.0078 | 0.002 ± 0.014 | -0.0255 ± 0.012 | -0.0305 ± 0.005 | 0.027 ± 0.034 | -0.0115 ± 0.012 | -0.001 ± 0.0028 | -0.0105 ± 0.012 | 0.021 ± 0.075 | 0.002 ± 0.023 | 0.0105 ± 0.005 | -0.0145 ± 0.044 | -0.0245 ± 0.0092 | 0.009 ± 0.04 | 0.008 ± 0.0014 | 0.0155 ± 0.0092 | 0.0125 ± 0.0092 | -0.0015 ± 0.00071 | 0.017 ± 0.0071 |

Source: the supplement of paper PMC10331698
